Measured values published in patent publication US20140249084A1, “PTH-CONTAINING THERAPEUTIC/PROPHYLACTIC AGENT FOR OSTEOPOROSIS, CHARACTERIZED IN THAT PTH IS ADMINISTERED ONCE A WEEK IN A UNIT DOSE OF 100 TO 200 UNITS” (ASAHI KASEI PHARMA CORPORATION, priority 2009, published 2014).
Where a name gives a salt, the structure may show the parent alone.

Tests used:
[1] = test system: patients having prednisone-induced osteoporosis complicated by arthralgia; conditions: daily administration, Non-patent References 23 and 24; cited from earlier work
[2] = test system: nausea and vomiting associated with administration of the test drug; test: Prescriptions for nausea and vomiting associated with administration of the test drug; format: in vivo, human; conditions: summary of Table 18
Text: The administration period and efficacy of various drugs to treat nausea and vomiting associated with administration of the test drug were studied.

[3] = conventional daily administration; osteoporosis patients having moderate renal dysfunction; Non-patent Reference 32; cited from earlier work
[4] = 20 μg/day, Non-patent Reference 1, cited from earlier work

| Molecule | Effect on nausea and vomiting associated with administration of the test drug (summary) [2] | further results |
| --- | --- | --- |
| CC[C@H](C)[C@H](NC(=O)[C@H](CCC(=O)O)NC(=O)[C@H](CO)NC(=O)[C@@H](NC(=O)[C@@H](N)CO)C(C)C)C(=O)N[C@@H](CCC(N)=O)C(=O)N[C@@H](CC(C)C)C(=O)N[C@@H](CCSC)C(=O)N[C@@H](Cc1cnc[nH]1)C(=O)N[C@@H](CC(N)=O)C(=O)N[C@@H](CC(C)C)C(=O)NCC(=O)N[C@@H](CCCCN)C(=O)N[C@@H](Cc1cnc[nH]1)C(=O)N[C@@H](CC(C)C)C(=O)N[C@@H](CC(N)=O)C(=O)N[C@@H](CO)C(=O)N[C@@H](CCSC)C(=O)N[C@@H](CCC(=O)O)C(=O)N[C@@H](CCCN=C(N)N)C(=O)N[C@H](C(=O)N[C@@H](CCC(=O)O)C(=O)N[C@@H](Cc1c[nH]c2ccccc12)C(=O)N[C@@H](CC(C)C)C(=O)N[C@@H](CCCN=C(N)N)C(=O)N[C@@H](CCCCN)C(=O)N[C@@H](CCCCN)C(=O)N[C@@H](CC(C)C)C(=O)N[C@@H](CCC(N)=O)C(=O)N[C@@H](CC(=O)O)C(=O)N[C@H](C(=O)N[C@@H](Cc1cnc[nH]1)C(=O)N[C@@H](CC(N)=O)C(=O)N[C@@H](Cc1ccccc1)C(=O)O)C(C)C)C(C)C [Forteo, teriparatide (rDNA origin) injection] |  | Bone strengthening effect compared with Fosamax [1]: stronger bone strengthening effect than Fosamax |
| CCOc1cc(N)c(Cl)cc1C(=O)NCC1CN(Cc2ccc(F)cc2)CCO1 (stereo not drawn) [Gasmotin, mosapride citrate] | effective |  |
| NC(N)=Nc1nc(CSCCC(N)=NS(N)(=O)=O)cs1 [Gaster D, famotidine] | effective |  |
| O=c1[nH]c2ccccc2n1CCCN1CCC(n2c(=O)[nH]c3cc(Cl)ccc32)CC1 [Nauzelin, domperidone] | effective |  |
| CCN(CC)CCNC(=O)c1cc(Cl)c(N)cc1OC [Primperan, metoclopramide] | effective |  |
| Cc1c(OCC(F)(F)F)ccnc1C[S+]([O-])c1nc2ccccc2[nH]1 (stereo not drawn) [Takepron OD, lansoprazole] | effective |  |
| PTH: PTH (parathyroid hormone) in conventional daily administration (20 μg/day), results from cited literature |  | Patients with serum calcium exceeding 11.0 mg/mL after administration [3]: 11.76%; Patients with persistent hypercalcemia [4]: 3%; Patients with hypercalcemia ([4]; blood samples 4 to 6 hours after administration): 11% |
